These results are taken from US20130296311A1, “INHIBITORS OF HCV NS5A” (PRESIDIO PHARMACEUTICALS, INC., priority 2010, published 2013).

The assay relates to HCV 1b_Huh-Luc/Neo-ET cell line persistently expressing a bicistronic genotype 1b replicon in Huh 7 cells. In words: HCV replicon assay (luciferase readout, 72 h). Type of assay: cell-based, HCV genotype 1b. The settings on record: Hepatitis C virus. Summed up: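 Huh 7 cells carrying a bicistronic genotype 1b luciferase/neo replicon received compound in triplicate the day after plating. After 72 h, replicon levels were read as Bright-Glo luciferase activity, expressed as % of control; EC50 was fitted with a four-parameter logistic and determined several times.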

Setting [1] is: Huh-7, 72 h, read-out: Inhibition of HCV genotype 1b.
Where [2] appears, read: Huh-7, read-out: Inhibition of HCV genotype 1b.

Structures are written as SMILES. Like-named read-outs stand apart in the source and are kept apart here.

Turning to `COC(=O)N[C@H](C(=O)N1CCC[C@H]1c1ncc(-c2ccc(C#Cc3ccc(-c4cnc([C@@H]5CCCN5C(=O)[C@@H](Nc5ncccn5)C(C)C)[nH]4)cc3)cc2)[nH]1)C(C)C` [Compound 1003], the EC50 under setting [1] was under 1 nM. As to `COC(=O)N[C@H](C(=O)N1CCC[C@H]1c1ncc(-c2ccc(C#Cc3ccc(-c4cnc([C@@H]5CCCN5C(=O)[C@H](NC(=O)OC)c5cccs5)[nH]4)cc3)cc2)[nH]1)[C@@H](C)OC` [Compound 1213], the EC50 under setting [2] is under 1 nM. With `COC(=O)N[C@H](C(=O)N1CCC[C@H]1c1ncc(-c2ccc(C#Cc3ccc(-c4cnc([C@@H]5CCCN5C(=O)[C@@H](NC5CCOCC5)C(C)C)[nH]4)cc3)cc2)[nH]1)C(C)C` [Compound 1001], the EC50 under setting [1] fell in the range of 1 to 9.9 nM. As to `C[C@H](NC(=O)[C@H](NC(=O)OC(C)(C)C)c1ccccc1)c1ncc(-c2ccc(C#Cc3ccc(-c4cnc([C@@H]5CCCN5C(=O)[C@H](NC(=O)OC(C)(C)C)c5ccccc5)[nH]4)cc3)cc2)[nH]1` [Compound 280], under setting [1], the EC50 was under 1 nM.

For `COC(=O)N[C@H](C(=O)N1CCC[C@H]1c1ncc(-c2ccc(C#Cc3ccc(-c4cnc([C@@H]5CCCN5C(=O)[C@H](NC(=O)OC)c5ccsc5)[nH]4)cc3)cc2)[nH]1)[C@@H](C)OC` [Compound 1212], under setting [2], the EC50 is under 1 nM. For `C[C@H](NC(=O)[C@@H]1CCCN1C(=O)[C@H](NC(=O)OC(C)(C)C)c1ccccc1)c1ccc(C#Cc2cnc([C@@H]3CCCN3C(=O)[C@H](NC(=O)OC(C)(C)C)c3ccccc3)[nH]2)cc1` [Compound 130], the EC50 under setting [1] lay within 10 to 999 nM. On the same count and under the same terms, the same measure for `O=C(N[C@@H](C(=O)N1CCC[C@H]1C(=O)NCc1ccc(C#Cc2ccc(-c3cnc([C@@H]4CCCN4C(=O)[C@H](NC(=O)C4CC4)c4ccccc4)[nH]3)cc2)cc1)c1ccccc1)C1CC1` [Compound 190]: under 1 nM; for `C(#Cc1ccc2nc([C@@H]3CCCN3)[nH]c2c1)c1ccc(-c2cnc([C@@H]3CCCN3)[nH]2)cc1` [Compound 1035]: 10 to 999 nM. Regarding `COC(=O)N[C@@H](C(=O)N1CCC[C@H]1CNC(=O)c1ccc(C#Cc2ccc(-c3cnc([C@@H]4CCCN4C(=O)[C@H](NC(=O)OC)c4ccccc4)[nH]3)cc2)cc1)c1ccccc1` [Compound 211], under setting [1], the EC50 is under 1 nM. As for `CC(C)[C@@H](NC(=O)OC(C)(C)C)C(=O)N1CCC[C@H]1c1ncc(-c2ccc(C#Cc3ccc(-c4cnc([C@@H]5CCCN5C(=O)[C@H](NC(=O)OC(C)(C)C)C(C)C)[nH]4)cc3)cc2)[nH]1` [Compound 152], the EC50 under setting [1] is 10 to 999 nM. Same read-out and setting: the same measure for `COC(=O)N[C@@H](C(=O)N1CCC[C@H]1c1ncc(-c2ccc(C#Cc3cnc([C@@H]4CCCN4C(=O)[C@@H](c4ccccc4)N(C)C)[nH]3)cc2)[nH]1)c1ccccc1` [Compound 128]: under 1 nM; for `COC(=O)N[C@@H](C(=O)N1CCC[C@H]1c1ncc(-c2ccc(C#Cc3ccc(-c4cnc([C@@H]5CCCN5C(=O)[C@@H]5CCCO5)[nH]4)cc3)cc2)[nH]1)c1ccccc1` [Compound 186]: under 1 nM. For `COC(=O)N[C@H](C(=O)N1CCC[C@H]1c1ncc(-c2ccc(C#Cc3ccc(-c4cnc([C@@H]5CCCN5C(=O)[C@@H](NC(=O)OC)C(C)C)[nH]4)cc3C#N)cc2)[nH]1)C(C)C` [Compound 1202], under setting [2], the EC50 was under 1 nM. Take `COC(=O)N[C@H](C(=O)N1CCC[C@H]1c1nc2ccc(C#Cc3ccc4c(ccc5nc([C@@H]6CCCN6C(=O)[C@@H](NC(=O)OC)C6CCOCC6)[nH]c54)c3)cc2[nH]1)C(C)C` [Compound 1287]: under setting [2], the EC50 was under 1 nM.

With `O=C(N[C@@H](C(=O)N1CCC[C@H]1c1ncc(C#Cc2ccc(-c3ccc(-c4cnc([C@@H]5CCCN5C(=O)[C@H](NC(=O)N5CC[C@H](O)C5)c5ccccc5)[nH]4)cc3)cc2)[nH]1)c1ccccc1)N1CC[C@H](O)C1` [Compound 762], the EC50 under setting [1] is under 1 nM. The same measure, in the same setting: for `COC(=O)N[C@H](C(=O)N1CCC[C@H]1c1ncc(-c2ccc(C#Cc3ccc4nc([C@@H]5CCCN5C(=O)[C@@H](C(C)C)N(C)C)[nH]c4c3)cc2)[nH]1)C(C)C` [Compound 1020] the value was under 1 nM; for `CC(C)[C@H](NC(=O)N1CC[C@@H](O)C1)C(=O)N1CCC[C@H]1c1ncc(-c2ccc(C#Cc3ccc(-c4cnc([C@@H]5CCCN5C(=O)[C@@H](NC(=O)N5CC[C@@H](O)C5)C(C)C)[nH]4)cc3)cc2)[nH]1` [Compound 968], 10 to 999 nM. On to `CC(C)[C@H](NC(=O)N1CCC(O)CC1)C(=O)N1CCC[C@H]1c1ncc(-c2ccc(C#Cc3ccc(-c4cnc([C@@H]5CCCN5C(=O)[C@@H](NC(=O)N5CCC(O)CC5)C(C)C)[nH]4)cc3)cc2)[nH]1` [Compound 286], for which the EC50 under setting [1] was over 1000 nM.

On to `COC(=O)N[C@H](C(=O)N1CCC[C@H]1c1ncc(-c2ccc(C#Cc3ccc(-c4cnc([C@@H]5CN(C(=O)OC)CCN5C(=O)[C@@H](NC(=O)OC)C(C)C)[nH]4)cc3)cc2)[nH]1)C(C)C` [Compound 1204], for which the EC50 under setting [2] was under 1 nM. `COC(=O)NC(C(=O)N1CCC[C@H]1c1nc2ccc(C#Cc3ccc4cc(-c5cnc([C@@H]6CCCN6C(=O)[C@H](NC(=O)OC6CCOCC6)c6ccccc6)[nH]5)ccc4n3)cc2[nH]1)C(C)C` (stereo partly drawn) [Compound 1291]: the EC50 under setting [2] was under 1 nM. `COC(=O)N[C@@H](C(=O)N1CCC[C@H]1c1ncc(-c2ccc(C#Cc3ccc4nc([C@@H]5CCCN5C(=O)[C@H](NC(=O)OC)c5ccccc5)[nH]c4c3)cc2)[nH]1)c1ccccc1` [Compound 800]: the EC50 under setting [1] was under 1 nM. Take `COC(=O)N[C@H](C(=O)N1CSC[C@H]1c1ncc(-c2ccc(C#Cc3ccc4nc([C@@H]5CCCN5C(=O)[C@@H](NC(=O)OC)C(C)C)[nH]c4c3)cc2)[nH]1)C(C)C` [Compound 1026]: the EC50 under setting [1] was under 1 nM. As to `COC(=O)N[C@@H](C(=O)N1CCC[C@H]1c1ncc(C#Cc2ccc3nc([C@@H]4CCCN4C(=O)[C@H](NC(=O)OC)c4ccccc4)[nH]c3c2)[nH]1)c1ccccc1` [Compound 700], the EC50 under setting [1] was under 1 nM. Turning to `COC(=O)N[C@H](C(=O)N1CCC[C@H]1c1nc2ccc3cc(C#Cc4ccc(-c5cnc([C@@H]6CCCN6C(=O)[C@@H](NC(=O)OC)C6CCOCC6)[nH]5)cc4F)ccc3c2[nH]1)C(C)C` [Compound 1099], the EC50 under setting [1] was under 1 nM. On to `O=C(N[C@@H](C(=O)N1CCC[C@H]1c1ncc(C#Cc2ccc(C#Cc3cnc([C@@H]4CCCN4C(=O)[C@H](NC(=O)C4CC4)c4ccccc4)[nH]3)cc2)[nH]1)c1ccccc1)C1CC1` [Compound 303], for which the EC50 under setting [1] is under 1 nM. For `COC(=O)N[C@H](C(=O)N1CCC[C@H]1c1nc2c([nH]1)-c1ccc(C#Cc3ccc4nc([C@@H]5CCCN5C(=O)[C@@H](NC(=O)OC)C5CCOCC5)[nH]c4c3)cc1CC2)C(C)C` [Compound 1102], the EC50 under setting [1] was under 1 nM. On the same count and under the same terms, for `CC(C)[C@H](NC(=O)N1CCN(C)CC1)C(=O)N1CCC[C@H]1c1ncc(-c2ccc(C#Cc3ccc(-c4cnc([C@@H]5CCCN5C(=O)[C@@H](NC(=O)N5CCN(C)CC5)C(C)C)[nH]4)cc3)cc2)[nH]1` [Compound 287] the value was over 1000 nM; for `CC(C)[C@@H](NC(=O)OC(C)(C)C)C(=O)N1CCC[C@H]1c1ncc(C#Cc2ccc(C#Cc3cnc([C@@H]4CCCN4C(=O)[C@H](NC(=O)OC(C)(C)C)C(C)C)[nH]3)cc2)[nH]1` [Compound 301], over 1000 nM. Regarding `COC(=O)N[C@H](C(=O)N1CCC[C@H]1c1ncc(-c2ccc(C#Cc3ccc4nc([C@@H]5CCCN5C(=O)[C@@H](NC(=O)OC)C5CCCC5)[nH]c4n3)cc2)[nH]1)C1CCCC1` [Compound 1250], the EC50 under setting [2] was under 1 nM. On to `COC(=O)N[C@H](CC(=O)N1CCC[C@H]1c1ncc(-c2ccc(C#Cc3ccc4nc([C@@H]5CCCN5C(=O)C[C@@H](NC(=O)OC)C(C)C)[nH]c4c3)cc2)[nH]1)C(C)C` [Compound 1065], for which, under setting [1], the EC50 was 10 to 999 nM.

`C[C@@H](c1ncc(-c2ccc(C#Cc3ccc(-c4cnc([C@@H]5CCCN5C(=O)[C@H](NC(=O)OC(C)(C)C)c5ccccc5)[nH]4)cc3)cc2)[nH]1)N(C)C(=O)[C@H](NC(=O)OC(C)(C)C)c1ccccc1` [Compound 265]: under setting [1], the EC50 is under 1 nM. For `O=C(N[C@@H](C(=O)N1CCC[C@H]1C(=O)NCCc1ccc(C#Cc2cnc([C@@H]3CCCN3C(=O)[C@H](NC(=O)C3CC3)c3ccccc3)[nH]2)cc1)c1ccccc1)C1CC1` [Compound 125], the EC50 under setting [1] is under 1 nM. Consider `COC(=O)N[C@@H](C(=O)N1CCC[C@H]1c1ncc(-c2ccc(C#Cc3ccc(-c4cnc([C@@H]5CCCN5C(=O)N5CCOCC5)[nH]4)cc3)cc2)[nH]1)c1ccccc1` [Compound 198], for which the EC50 under setting [1] was under 1 nM. In the case of `CC[C@H](NC(=O)OC)C(=O)N1CCC[C@H]1c1nc2ccc(C#Cc3ccc(-c4cnc([C@@H]5CCCN5C(=O)[C@@H](NC(=O)OC)[C@@H](C)OC)[nH]4)cc3)cc2[nH]1` [Compound 1245], under setting [2], the EC50 is under 1 nM. On to `COC(=O)N[C@H](C(=O)N1CCC[C@H]1c1nc2ccc(C#Cc3ccc(-c4cnc([C@@H]5CCCN5C(=O)[C@@H](NC(=O)OC)[C@@H](C)OC)[nH]4)cc3)cc2[nH]1)C(C)C` [Compound 1235], for which the EC50 under setting [2] is under 1 nM. Regarding `COC(=O)N[C@@H](Cc1c[nH]c2ccccc12)C(=O)N1CCC[C@H]1c1ncc(-c2ccc(C#Cc3ccc4nc([C@@H]5CCCN5C(=O)[C@H](Cc5c[nH]c6ccccc56)NC(=O)OC)[nH]c4c3)cc2)[nH]1` [Compound 1057], the EC50 under setting [1] is under 1 nM.

Turning to `COC(=O)N[C@H](C(=O)N1CCC[C@H]1c1ncc(-c2ccc(C#Cc3ccc4c(ccc5nc([C@@H]6CCCN6C(=O)[C@@H](NC(=O)OC)C(C)C)[nH]c54)c3)cc2)[nH]1)C(C)C` [Compound 1095], under setting [1], the EC50 was under 1 nM. In the case of `CC[C@@H](C)[C@H](NC(=O)OC)C(=O)N1CCC[C@H]1c1ncc(-c2ccc(C#Cc3ccc(-c4cnc([C@@H]5CCCN5C(=O)[C@@H](NC(=O)OC)[C@H](C)CC)[nH]4)cc3)cc2)[nH]1` [Compound 1217], the EC50 under setting [2] was under 1 nM.

With `COC(=O)N[C@H](C(=O)N1CCC[C@H]1c1ncc(-c2ccc(C#Cc3ccc(-c4cnc([C@@H]5CCCN5C(=O)[C@@H](NC(=O)N5CCN(CCO)CC5)c5ccccc5)[nH]4)cc3)cc2)[nH]1)C(C)C` [Compound 990], the EC50 under setting [1] was 1 to 9.9 nM.
